Results on 14 compounds are retold here after patent US20150192564A1, “PROFILING REACTIVE OXYGEN, NITROGEN AND HALOGEN SPECIES” (ENZO LIFE SCIENCES, INC., C/O ENZO BIOCHEM, INC, priority 2008, published 2015).

Like-named read-outs stand apart in the source and are kept apart here.

Series [1] has as its system HeLa cells. Description: Profiling of ROS induced in HeLa cells by different ROS inducers, DCFDA/HE staining, wide-field fluorescence microscopy (Example 2). Format: cell-based, Human. Conditions: for ROS types induced (green DCF and orange HE fluorescence): HeLa cells, inducer 1 h 37° C., 0.5 mM pyrogallol, 0.1 mM pyocyanin, 0.1 mM TBHP, FIG. 4A. Here is the method:
For purposes of simplifying the assay description, this example was carried out with only two indicator probes, though analogous procedures were employed as in the case where three fluorophores were utilized. Human cervical carcinoma cell line HeLa was cultured as described in Example 1. The day before the experiment, the cells were seeded in multi-well microscope slides (Gel-Line™, Portsmouth, N.H.) at a density of 2×10^4 cells per well. […] After a brief wash with PBS, the cells were stained with 1 l-1M of DGFDA and HE in culture medium for 30 min, 37° C., washed twice with PBS, overlaid with a cover slip and observed under the fluorescent microscope, using green and orange filters described in the Table 2 (FIG. 4A). To perform specific profiling of ROS/RNS, parallel samples of HeLa cells were pretreated for 30 min with 5 mM NAG (general ROS scavenger, FIG. 4B), 5 mM Tiron (specific superoxide scavenger, FIG. 4C), 10 mM pyruvate (specific peroxide scavenger, FIG. 4D). Pretreated cells were induced as described, overlaid with a cover slip and observed under fluorescent microscope using the same set of filters.

Series [2] concerns HeLa cells. Description: Multiplexed ROS/RNS detection in HeLa cells by flow cytometry (Example 4). It is filed as cell-based, Human. Conditions: for effect of pretreatment on L-arginine-induced FL4 (NO) signal / NO production (fluorescence of oxidized DAQ product in FL4): FIG. 6 top panel; for NO production (fluorescence of oxidized DAQ product in FL4): one hour treatment. The method, then: HeLa cells were cultured as described in Example 1. The day before the experiment, the cells were seeded in 6-well tissue culture dishes at a density of 5×10^5 cells per well. On the day of the experiment, the cells were loaded with 50 μM of DAQ, 1 l-1M of DCFDA and HE (solution in culture medium) for 2 h, 37° C. and induced with L-arginine, pyocyanin or their combination, as described in Example 1. To confirm specificity and selectivity of the staining, parallel samples were treated with NAG (general ROC inhibitor) and cPTIO (general NO scavenger and NOS inhibitor). After one hour treatment, the cells were washed with PBS, trypsinized and resuspended in 0.5 ml of PBS. After resuspension, the cells were immediately analyzed by flow cytometry using FAGS Calibur instrument (or any benchtop cytometer equipped with blue and red lasers could be used). Green fluorescence of oxidized DCF was detected in the FL1 channel (excitation with 488 nm blue laser, emission detection with 530/30 BP filter), red fluorescence of DHE was detected in the FL2 channel (excitation with 488 nm blue laser, emission detection with 585/42 BP filter). Fluorescence of oxidized DAQ product was detected in the FL4 channel (excitation with 635 nm red laser, emission detection with 670 LP filter). There was substantial overlap between the oxidized dye spectra; therefore, compensation was required. For compensation purposes, singly stained samples were prepared and compensation was performed using standard protocols.
A general note: A flow cytometer gives signals particle by particle.

Series [3] concerns HeLa cells. Nature of the series: ROS/RNS production in HeLa cells, triple staining DAQ/DCFDA/HE, wide-field fluorescence microscopy (Example 1). Conditions: for effect of pretreatment on ROS production induced by pyocyanin: NAG 5 mM, 3C; for effect of pretreatment on green fluorescence upon combination treatment with L-arginine and pyocyanin: HeLa cells pretreated, ebselen 20 μM, 3D. Format: cell-based, Human. Here is the method:
Human cervical adenocarcinoma epithelial cell line HeLa was obtained from ATCC (ATTC, Manassas, Va.) and was routinely cultured in Dulbecco's modified eagle medium with low glucose (Sigma-Aldrich, St. Louis, Mo.), supplemented with 10% fetal bovine serum heat inactivated (ATCC) and 100 U/ml penicillin, […] streptomycin (Sigma). Cell cultures were maintained in an incubator at 37° C., with 5% CO2 atmosphere. Three ROS/RNS fluorescent probes were dissolved in anhydrous DMF at the following concentrations: DAQ-20 mM (a 400× stock solution), DCFDA-5 mM (a 5000× stock solutions), DHE-5 mM (a 5000× stock solution). Anhydrous organic solvents should be used with DMF being the first choice, since DMSO is a hydroxyl radical scavenger and its presence may affect ROS/RNS production in cellular systems. Stock solutions of the dyes were aliquoted and stored at −20° C. The day before the experiment, HeLa cells were seeded on multiwell microscope slides (Gel-Line™ Brand, Portsmouth, N.H.) at a density of 2×10^4 cells per well. On the next day, the cells were loaded with 50 μM of DAQ, 1 μM of DCFDA and HE (all dilutions were made in growth medium) for 2 h, 37° C. Then the medium containing dyes was removed, the cells were briefly washed with PBS and induced with L-arginine (1 mM), pyocyanin (100 μM) or their combination for 20 min. […] Pretreated cells were induced as described earlier, overlaid with a cover slip and observed under fluorescence microscope.

The conditions of series [4]: cited from earlier work.
For a further series, the system named is cells. The conditions noted are these: cited from earlier work.
The test system of series [5] is HeLa cells. Description: Kinetic changes in levels of NO and ROS in HeLa cells, wide-field fluorescence microscopy (Example 3). Format: cell-based, Human. Conditions: 1 mM L-arginine; for time after treatment at which DAQ signal (NO) was detectable: 1 μM A23187, FIG. 5A; for NO levels (DAQ signal) / ROS production (FIGS. 5B and 5C): 10-60 min treatment; for NO levels (DAQ signal): 1 μM A23187, 0.2 mM antimycin A, 0.1 mM pyocyanin or combination, FIG. 5A; for ROS production (FIGS. 5B and 5C): 0.2 mM antimycin A, 0.1 mM pyocyanin. Here is the method: HeLa cells were cultured and plated as described in Example 1. On the day of the experiment, cells were loaded with 50 μM of DAQ, 1 l-1M of DCFDA and HE for 2 h, 37° C. and induced with different ROS and NO inducers (1 μM of A23187, 0.2 mM of antimycin A, 1 mM of L-arginine, 0.1 mM of pyocyanin or combination of L-arginine and pyocyanin) at 37° C. Samples for fluorescent microscopy were prepared after 10, 20, 30, 45 and 60 min of treatment as described in Example 1 and analyzed using an Olympus wide field fluorescent microscope (set of filters as described in the Table 2).

The conditions of series [6]: ROS-generating system: O2•−; cited from earlier work.
For series [7] the following is noted: ROS-generating system: •OH; cited from earlier work.
The conditions of series [8]: ROS-generating system: 1O2; cited from earlier work.
The conditions of series [9]: ROS-generating system: ROO−; cited from earlier work.
For series [10] the following is noted: ROS-generating system: ONOO−; cited from earlier work.
The conditions of series [11]: ROS-generating system: NO; cited from earlier work.
The conditions of series [12]: ROS-generating system: •OCl; cited from earlier work.
The conditions of series [13]: ROS-generating system: H2O2; cited from earlier work.
Setting [14] is: FIG. 6 middle and bottom panels.
Setting [15] is: HeLa cells pretreated 1 h, cPTIO 20 μM, FIG. 3B.
Setting [16] is: HeLa cells induced 20 min, L-arginine 1 mM, pyocyanin 100 μM or combination, FIG. 3A.
Where [17] appears, read: HeLa cells pretreated with 20 μM ebselen, FIG. 3D.

As for `CC(=O)N[C@@H](CS)C(=O)O` [NAG, N-acetyl-L-cysteine], the “effect of pretreatment on production of ROS types” value in the series on HeLa cells [1] (HeLa cells pretreated 30 min with 5 mM NAG, then inducers, FIG. 4B) is on record as “abolished the production of all ROS types”. Further, in the series with HeLa cells [2] (setting [14]), the “effect of pretreatment on pyocyanin-induced ROS production (FL1 and FL2)” value is given as “blocked”. Besides, the “effect of pretreatment on L-arginine-induced FL4 (NO) signal” value in the series with HeLa cells [2] was “not”. Also, the “effect of pretreatment on ROS production induced by pyocyanin” value with HeLa cells [3] (setting [15]) is given as “attenuated ROS induction”. Besides, in the series on HeLa cells [3] (HeLa cells pretreated with 5 mM NAG, FIG. 3C), the “general levels of NO production in pretreated cells” value is given as “increased”.

`Nc1cc2ccccc2cc1N` [DAN, 2,3-diamino naphthalene]: the “solubility in aqueous solution” value in [4] is reported as “poorly soluble”. Besides, the cellular toxicity result in the series on cells is on record as “high cellular toxicity”.

On to `N=C(N)NCCC[C@H](N)C(=O)O` [L-arginine], for which, in the series with HeLa cells [5], the “time after treatment at which DAQ signal (NO) was detectable” value was determined as 10 min; the “NO levels (DAQ signal)” value is “high levels of NO production”; the “ROS production (FIGS. 5B and 5C)” value is given as “No significant ROS production”. In addition, the “NO production (fluorescence of oxidized DAQ product in FL4)” value in the series with HeLa cells [2] is listed as “induced NO production”. Further, in the series with HeLa cells [3] (setting [16]), the “NO production (oxidized DAQ fluorescence, Cy5 filter)” value was “extensive NO production”.

As for `Oc1cccc(O)c1O` [pyrogallol], in the series with HeLa cells [1], the “ROS types induced (green DCF and orange HE fluorescence)” value (“ROS types induced” for short) was “induced mostly superoxide production”.

In the case of `CNc1ccc2oc(C[C@H]3O[C@@]4(CC[C@H]3C)O[C@H]([C@H](C)C(=O)c3ccc[nH]3)[C@H](C)C[C@H]4C)nc2c1C(=O)O` [A23187], the “time after treatment at which DAQ signal (NO) was detectable” value in the series with HeLa cells [5] is given as 20 min.

Consider `Nc1ccc(Oc2ccc3c(-c4ccccc4C(=O)O)c4ccc(=O)cc-4oc3c2)cc1` [APF, 2-[6-(4′-amino)phenoxy-3H-xanthen-3-on-9-yl]benzoic acid], for which the Fluorescence increase in [6] was 6; in series [7], 1200; in series [8], 9; in [9], 2; in series [10], 560; in [11], 1. The values for the Fluorescence increase in [12] and in [13] were 3600 and 1, respectively.

On to `O=C(O)c1ccccc1-c1c2ccc(=O)cc-2oc2cc(Oc3ccc(O)cc3)ccc12` [HPF, 2-[6-(4′-hydroxyl)phenoxy-3H-xanthen-3-on-9-yl]benzoic acid], for which the Fluorescence increase is on record as 8 in series [6]; 730 in series [7]; 5 in series [8]; 17 in [9]; 120 in series [10]; 6 in series [11]. For the same compound, the Fluorescence increase was 6 in series [12] and 2 in series [13].

On to antimycin A, for which, in the series with HeLa cells [5], the “NO levels (DAQ signal)” value is recorded as “did not induce any DAQ-detectable signal”; the “ROS production (FIGS. 5B and 5C)” value is “early induction of ROS”.

As for `CC1(C)N([O])C(c2ccc(C(=O)[O-])cc2)=[N+]([O-])C1(C)C.[K+]` [cPTIO, 2-(4-carboxyphenyl)-4,5-dihydro-4,4,5,5-tetramethyl-1H-imidazolyl-1-oxy-3-oxide, potassium salt], the “effect of pretreatment on L-arginine-induced FL4 (NO) signal” value in the series on HeLa cells [2] is on record as “blocked”. In the series on HeLa cells [3] (setting [15]), the “effect of pretreatment on ROS production induced by pyocyanin” value was “did not affect ROS production” and the “effect of pretreatment on NO production upon L-arginine induction” value is “completely abrogated NO production”. The “effect of pretreatment on green fluorescence upon combination treatment with L-arginine and pyocyanin” value in the series on HeLa cells [3] (cPTIO 20 μM, FIG. 3B) is recorded as “green fluorescence decreased”.

With `O=C1OC2(c3cc(Cl)c(O)cc3Oc3cc(O)c(Cl)cc32)c2ccccc21` [OCFH, 2′,7′-dichlorofluorescein], the Fluorescence increase is listed as 67 in [6]; 7400 in series [7]; 26 in series [8]; 710 in [9]; 6600 in series [10]; 150 in [11]. Further, the figures for the Fluorescence increase in series [12] and in [13] were 86 and 190, respectively.

On to `O=S(=O)(O)c1cc(O)c(O)c(S(=O)(=O)O)c1` [Tiron], for which, in the series on HeLa cells [1] (HeLa cells pretreated 30 min, 5 mM Tiron or 10 mM pyruvate, FIG. 4C, 4D), the “effect of pretreatment on green fluorescence in pyrogallol-treated cells” value was “green fluorescence was increased”. Further, in the series on HeLa cells [1] (HeLa cells pretreated 30 min with 5 mM Tiron, then inducers, FIG. 4C), the “effect of pretreatment on orange fluorescence (superoxide)” value is given as “attenuated only orange fluorescence in all treated cells”.

Turning to `O=c1c2ccccc2[se]n1-c1ccccc1` [ebselen, 2-phenyl-1,2-benzisoselenazol-3[2H]-one], in the series with HeLa cells [3] (setting [17]), the “effect of pretreatment on levels of NO or superoxide in the combination treated sample” value is “did not restore the original levels of NO or superoxide” and the “effect of pretreatment on peroxynitrite” value is “inactivated peroxynitrite upon its production”. Further, the “effect of pretreatment on green fluorescence upon combination treatment with L-arginine and pyocyanin” value in the series on HeLa cells [3] (cPTIO 20 μM, FIG. 3B) is reported as “decreased significantly”.

Consider `CC(C)(C)OO` [TBHP, tert-butyl hydroperoxide], for which the “ROS types induced” value in the series on HeLa cells [1] was “majority of peroxide/hydroxyl radicals/peroxynitrite”.

Turning to `Cn1c2cccc(=O)c-2nc2ccccc21` [pyocyanin], in the series on HeLa cells [5], the “NO levels (DAQ signal)” value is “did not induce any DAQ-detectable signal”; the “ROS production (FIGS. 5B and 5C)” value is on record as “early induction of ROS”. Besides, in the series with HeLa cells [1], the “ROS types induced” value is on record as “majority of superoxide”. Further, in the series with HeLa cells [2] (setting [14]), the “ROS production detected in FL1 and FL2 channels” value is recorded as “induced significant ROS production”. In addition, in the series with HeLa cells [2], the “NO production (fluorescence of oxidized DAQ product in FL4)” value is on record as “did not induce significant NO production”. Also, in the series with HeLa cells [3] (setting [16]), the “NO production (oxidized DAQ fluorescence, Cy5 filter)” value is “did not affect NO production” and the “superoxide production (HE fluorescence, orange filter)” value is reported as “induced superoxide production”.
